Results as given in the NIST ThermoML archive (doi:10.1016/j.fluid.2015.09.034).
± gives the expanded uncertainty stated by the source.

Conditions: Liquid, Chromatography

O=C=O [carbon dioxide]
vapor or sublimation pressure (223.14 K): 682.9 ± 53 kPa
vapor or sublimation pressure (298.17 K): 6436.9 ± 500 kPa
vapor or sublimation pressure (303.16 K): 7210.5 ± 560 kPa
